# Reference: patent US9150528B2, “Compound having detrusor muscle-contracting activity and urethral sphincter muscle-relaxing activity” (ONO PHARMACEUTICAL CO., LTD., priority 2009, dated 2015)
# Tested on: urinary excretion dysfunction models
# Test: Urinary excretion dysfunction models, maximal urinary flow rate
# Assay type: in vivo
# Details: 60 ng/kg/h continuous intravenous, cynomolgus monkey urinary excretion dysfunction model
# Description: Urinary excretion dysfunction models were constructed in accordance with the following procedure. After anesthesia of cynomolgus monkeys, the region from the suprapubic area to the abdominal area was shaved, followed by fixing in a dorsal position. The shaved region was disinfected and the four legs were fixed. Using an electrosurgical knife, the skin region from the suprapubic area to the umbilical area and the peritoneal membrane were sequentially incised, followed by damage to the pelvic nerve and removal of the uterus. After the surgical operation, viccillin-containing physiological saline was added dropwise to the incised area. The peritoneal membrane and skin of the incised area were sutured with silk threads and disinfected. Viccillin was administered for 7 consecutive days after surgery. Meloxicam was administered once daily for 7 consecutive days to manage pain in the perioperative period.
# The cynomolgus monkeys were seated on monkey chairs, followed by retention of the hands and legs with strings. Injectable water was administered orally, and physiological saline and the test compound (60 ng/kg/h) were continuously administered intravenously to allow urination freely. The maximal urinary flow rate was measured using a urine weighing sensor.
compound,measurement,value
"C[C@@](O)(C/C=C/[C@H]1CCC(=O)[C@@H]1CCSc1nc(C(=O)O)cs1)CCC(F)=C(F)F [Compound 17, 2-[(2-{(1R,5R)-2-oxo-5-[(1E,4S)-7,8,8-trifluoro-4-hydroxy-4-methyl-1,7-octadien-1-yl]cyclopentyl}ethyl)thio]-1,3-thiazole-4-carboxylic acid]",improvement in maximal urinary flow rate over the vehicle group,61%
